Assay [1] deals with T1, Fatty acid synthase (Homo sapiens, UniProt P49327). Kind of assay: FAS thioesterase domain inhibitors, dose response, biochemical, kinetic fluorescence intensity (AID 624326).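 Also: rate of fluorescence rise from hydrolysis of a fluorogenic O-methyl fluorescein ester substrate.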 In kind it is functional.
In assay [2] the target is T1, Fatty acid synthase. In words: FAS thioesterase domain inhibitors, dose response, biochemical, endpoint fluorescence intensity, uHTS hits (AID 624327).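 Also: fluorescence from hydrolysis of an O-methyl fluorescein acyl ester substrate by the enzyme.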 In kind it is functional.
The target of assay [3] is T2, Replicative DNA helicase DnaB (Mycobacterium tuberculosis, UniProt P9WMR3).
T2 sequence (P9WMR3 whole entry): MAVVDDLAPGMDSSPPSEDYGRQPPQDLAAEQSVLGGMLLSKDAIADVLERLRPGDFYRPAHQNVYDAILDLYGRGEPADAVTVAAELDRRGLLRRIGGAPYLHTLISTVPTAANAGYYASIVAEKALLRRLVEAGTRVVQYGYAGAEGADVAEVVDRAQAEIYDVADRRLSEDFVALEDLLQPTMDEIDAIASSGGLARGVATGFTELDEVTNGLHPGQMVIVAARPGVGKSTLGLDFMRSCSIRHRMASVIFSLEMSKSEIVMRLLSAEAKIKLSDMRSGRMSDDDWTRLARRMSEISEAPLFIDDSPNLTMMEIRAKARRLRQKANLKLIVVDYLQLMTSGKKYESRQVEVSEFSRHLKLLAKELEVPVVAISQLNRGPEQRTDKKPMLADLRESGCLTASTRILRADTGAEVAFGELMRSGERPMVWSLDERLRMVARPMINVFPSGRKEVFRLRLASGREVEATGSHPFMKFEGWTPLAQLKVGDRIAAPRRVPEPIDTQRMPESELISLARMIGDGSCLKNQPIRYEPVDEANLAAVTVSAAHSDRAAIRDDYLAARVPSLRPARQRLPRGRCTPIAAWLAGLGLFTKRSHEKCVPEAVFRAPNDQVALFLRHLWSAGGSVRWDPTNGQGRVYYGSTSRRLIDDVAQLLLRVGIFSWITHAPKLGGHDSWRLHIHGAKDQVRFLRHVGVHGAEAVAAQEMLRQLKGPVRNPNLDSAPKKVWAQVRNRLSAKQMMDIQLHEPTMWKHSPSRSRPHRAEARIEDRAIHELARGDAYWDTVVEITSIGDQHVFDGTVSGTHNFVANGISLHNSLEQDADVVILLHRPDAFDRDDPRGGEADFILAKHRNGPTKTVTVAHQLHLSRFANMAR
In words: DnaB intein splicing inhibitors, dose response, biochemical, cell-free fluorescence (AID 449749). The assay is classed as functional.

For another assay, the target named is T3, Protein RecA (Mycobacterium tuberculosis, UniProt P9WHJ3).
T3 sequence (P9WHJ3 whole entry): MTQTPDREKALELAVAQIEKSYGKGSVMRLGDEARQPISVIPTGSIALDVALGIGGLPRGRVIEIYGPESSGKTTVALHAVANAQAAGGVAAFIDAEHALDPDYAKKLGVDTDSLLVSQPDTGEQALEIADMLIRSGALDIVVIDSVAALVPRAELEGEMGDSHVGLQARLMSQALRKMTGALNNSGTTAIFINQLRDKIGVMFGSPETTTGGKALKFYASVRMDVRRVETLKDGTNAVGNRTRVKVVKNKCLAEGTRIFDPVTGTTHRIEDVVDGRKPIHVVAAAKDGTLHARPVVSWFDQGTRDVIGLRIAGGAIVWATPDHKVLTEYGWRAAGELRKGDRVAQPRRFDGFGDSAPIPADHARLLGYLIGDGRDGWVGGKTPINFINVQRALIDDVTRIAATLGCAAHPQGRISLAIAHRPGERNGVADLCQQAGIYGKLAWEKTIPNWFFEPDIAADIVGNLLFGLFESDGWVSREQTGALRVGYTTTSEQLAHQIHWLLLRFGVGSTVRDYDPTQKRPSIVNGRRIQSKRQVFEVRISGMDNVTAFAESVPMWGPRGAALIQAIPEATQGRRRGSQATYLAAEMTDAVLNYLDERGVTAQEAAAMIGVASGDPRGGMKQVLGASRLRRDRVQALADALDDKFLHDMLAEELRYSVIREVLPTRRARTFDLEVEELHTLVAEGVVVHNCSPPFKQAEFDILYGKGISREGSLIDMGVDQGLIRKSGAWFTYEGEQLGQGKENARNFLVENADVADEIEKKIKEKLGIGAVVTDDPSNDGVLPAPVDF
Kind of assay: Fluorescence Cell-Free Homogeneous Dose Retest to Identify Inhibitors of RecA-Intein Splicing Activity. [Related pubchem assays (depositor defined):AID2097, AID2223, AID489010, AID492950]. In kind it is functional.

Assay [4] deals with FAD-linked sulfhydryl oxidase ALR (Homo sapiens, UniProt P55789). Kind of assay: inhibitors of human ALR sulfhydryl oxidase, dose response, biochemical, H2O2 detection, luminescence, cherry-pick (AID 493248).
Chain of FAD-linked sulfhydryl oxidase ALR (P55789 whole entry): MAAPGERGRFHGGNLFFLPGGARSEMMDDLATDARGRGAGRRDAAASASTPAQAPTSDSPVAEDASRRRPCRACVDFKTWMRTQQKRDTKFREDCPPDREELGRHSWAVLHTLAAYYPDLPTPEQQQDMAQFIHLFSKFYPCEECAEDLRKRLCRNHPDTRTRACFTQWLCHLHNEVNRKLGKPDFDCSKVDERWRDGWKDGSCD
The next assay relates to INS1. In words: beta cell apoptosis inhibitors, cytokine rescue, dose response, luminescence, retest (AID 449756).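 Also: cell death triggered by IL-1 beta plus TNF-alpha plus IFN-gamma mixture; protective hits raise ATP signal compared with cytokine alone wells.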 In kind it is functional, cell-based. The settings on record: Rattus norvegicus.
For a further assay, the target named is T4, Cytochrome P450 1A2 (Homo sapiens, UniProt P05177).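 Also: PubChem cytochrome P450 panel assay, CYP1A2 panel member.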
T4 sequence (P05177 whole entry): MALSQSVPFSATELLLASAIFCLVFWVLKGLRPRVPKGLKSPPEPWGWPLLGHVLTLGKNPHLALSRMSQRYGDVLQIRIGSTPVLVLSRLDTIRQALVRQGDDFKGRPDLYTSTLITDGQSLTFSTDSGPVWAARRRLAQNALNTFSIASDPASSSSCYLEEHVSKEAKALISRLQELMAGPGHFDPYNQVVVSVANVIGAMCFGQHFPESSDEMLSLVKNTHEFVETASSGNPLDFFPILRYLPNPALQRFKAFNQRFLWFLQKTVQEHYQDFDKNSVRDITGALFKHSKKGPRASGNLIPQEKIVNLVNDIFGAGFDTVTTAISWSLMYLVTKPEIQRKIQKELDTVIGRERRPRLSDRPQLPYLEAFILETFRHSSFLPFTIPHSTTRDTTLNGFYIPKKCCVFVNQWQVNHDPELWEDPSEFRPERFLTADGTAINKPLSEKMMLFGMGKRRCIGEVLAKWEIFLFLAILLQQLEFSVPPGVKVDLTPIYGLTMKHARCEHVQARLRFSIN

Assay [5] concerns Streptococcus sp. 'group A'. In words: growth inhibition of control SK(-) GAS strain, dose response, counter-screen for streptokinase expression inhibitor project, luminescence, kanamycin, BacTiterGlo, confirmation (AID 1900). In kind it is functional, organism-based. For orientation: The purpose of a counterscreen is to sort out artefacts and off-target activity.
In the next assay the test system is Streptococcus. Kind of assay: Group A Streptococcus viability loss, dose response, counter-screen for streptokinase expression inhibitor project, luminescence, BacTiterGlo (AID 1915).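 Also: potency for reduction of bacterial viability or growth.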 The assay is classed as functional, organism-based.
For a further assay, the target named is T5, Streptokinase A (Streptococcus pyogenes serotype M1, UniProt P10520).
T5 sequence (P10520 whole entry): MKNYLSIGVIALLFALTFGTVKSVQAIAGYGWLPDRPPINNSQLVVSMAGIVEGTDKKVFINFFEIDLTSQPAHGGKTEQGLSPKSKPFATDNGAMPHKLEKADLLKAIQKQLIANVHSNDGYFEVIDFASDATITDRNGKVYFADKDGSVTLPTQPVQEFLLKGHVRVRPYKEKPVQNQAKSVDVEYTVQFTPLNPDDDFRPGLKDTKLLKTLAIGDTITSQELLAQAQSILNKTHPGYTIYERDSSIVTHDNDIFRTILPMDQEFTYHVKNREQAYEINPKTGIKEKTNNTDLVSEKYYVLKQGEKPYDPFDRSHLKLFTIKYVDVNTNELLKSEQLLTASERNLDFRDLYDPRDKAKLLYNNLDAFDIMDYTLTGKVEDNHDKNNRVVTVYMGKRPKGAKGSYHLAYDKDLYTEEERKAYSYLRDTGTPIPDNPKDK
Kind of assay: S. pyogenes streptokinase expression inhibitors, potency, dose response, plasminogen activation absorbance, OD405 (AID 1914).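 Also: secreted streptokinase activity via plasminogen activation per viability signal from cell pellet.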 The assay is classed as functional, Streptococcus pyogenes M1 GAS.

The nature of assay [6]: Luminescence Cell-Based Dose Retest to Confirm Inhibitors of Cancer Stem Cells. [Related pubchem assays (depositor defined):AID2717, AID2721]. The following applies: Homo sapiens. The assay is classed as functional.
The nature of assay [7]: inhibitors of intracellular T. cruzi replication, confirmation, NIH3T3 host cells, beta-gal luminescence (AID 2044).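 Also: intracellular parasites grown in NIH/3T3 mouse fibroblasts as host cells; luminescent beta-galactosidase reporter signal from transgenic T. cruzi replicating inside host cells; inhibitors lower the luminescence signal.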 In kind it is functional, cell-based.
Assay [8] can be described thus: cytotoxicity toward NIH3T3 fibroblasts, dose response, counter-screen, cell-based, ATP luminescence, mouse fibroblasts (AID 2010).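 Also: cells exposed to compound for about 90 hours before reading.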 The assay is classed as functional.

This note sets out measurements from ChEMBL document CHEMBL1201862, “PubChem BioAssay data set” (2004).

Activity calls are given as the source filed them.

T1 sequence (P49327 whole entry, the tested form may be a part): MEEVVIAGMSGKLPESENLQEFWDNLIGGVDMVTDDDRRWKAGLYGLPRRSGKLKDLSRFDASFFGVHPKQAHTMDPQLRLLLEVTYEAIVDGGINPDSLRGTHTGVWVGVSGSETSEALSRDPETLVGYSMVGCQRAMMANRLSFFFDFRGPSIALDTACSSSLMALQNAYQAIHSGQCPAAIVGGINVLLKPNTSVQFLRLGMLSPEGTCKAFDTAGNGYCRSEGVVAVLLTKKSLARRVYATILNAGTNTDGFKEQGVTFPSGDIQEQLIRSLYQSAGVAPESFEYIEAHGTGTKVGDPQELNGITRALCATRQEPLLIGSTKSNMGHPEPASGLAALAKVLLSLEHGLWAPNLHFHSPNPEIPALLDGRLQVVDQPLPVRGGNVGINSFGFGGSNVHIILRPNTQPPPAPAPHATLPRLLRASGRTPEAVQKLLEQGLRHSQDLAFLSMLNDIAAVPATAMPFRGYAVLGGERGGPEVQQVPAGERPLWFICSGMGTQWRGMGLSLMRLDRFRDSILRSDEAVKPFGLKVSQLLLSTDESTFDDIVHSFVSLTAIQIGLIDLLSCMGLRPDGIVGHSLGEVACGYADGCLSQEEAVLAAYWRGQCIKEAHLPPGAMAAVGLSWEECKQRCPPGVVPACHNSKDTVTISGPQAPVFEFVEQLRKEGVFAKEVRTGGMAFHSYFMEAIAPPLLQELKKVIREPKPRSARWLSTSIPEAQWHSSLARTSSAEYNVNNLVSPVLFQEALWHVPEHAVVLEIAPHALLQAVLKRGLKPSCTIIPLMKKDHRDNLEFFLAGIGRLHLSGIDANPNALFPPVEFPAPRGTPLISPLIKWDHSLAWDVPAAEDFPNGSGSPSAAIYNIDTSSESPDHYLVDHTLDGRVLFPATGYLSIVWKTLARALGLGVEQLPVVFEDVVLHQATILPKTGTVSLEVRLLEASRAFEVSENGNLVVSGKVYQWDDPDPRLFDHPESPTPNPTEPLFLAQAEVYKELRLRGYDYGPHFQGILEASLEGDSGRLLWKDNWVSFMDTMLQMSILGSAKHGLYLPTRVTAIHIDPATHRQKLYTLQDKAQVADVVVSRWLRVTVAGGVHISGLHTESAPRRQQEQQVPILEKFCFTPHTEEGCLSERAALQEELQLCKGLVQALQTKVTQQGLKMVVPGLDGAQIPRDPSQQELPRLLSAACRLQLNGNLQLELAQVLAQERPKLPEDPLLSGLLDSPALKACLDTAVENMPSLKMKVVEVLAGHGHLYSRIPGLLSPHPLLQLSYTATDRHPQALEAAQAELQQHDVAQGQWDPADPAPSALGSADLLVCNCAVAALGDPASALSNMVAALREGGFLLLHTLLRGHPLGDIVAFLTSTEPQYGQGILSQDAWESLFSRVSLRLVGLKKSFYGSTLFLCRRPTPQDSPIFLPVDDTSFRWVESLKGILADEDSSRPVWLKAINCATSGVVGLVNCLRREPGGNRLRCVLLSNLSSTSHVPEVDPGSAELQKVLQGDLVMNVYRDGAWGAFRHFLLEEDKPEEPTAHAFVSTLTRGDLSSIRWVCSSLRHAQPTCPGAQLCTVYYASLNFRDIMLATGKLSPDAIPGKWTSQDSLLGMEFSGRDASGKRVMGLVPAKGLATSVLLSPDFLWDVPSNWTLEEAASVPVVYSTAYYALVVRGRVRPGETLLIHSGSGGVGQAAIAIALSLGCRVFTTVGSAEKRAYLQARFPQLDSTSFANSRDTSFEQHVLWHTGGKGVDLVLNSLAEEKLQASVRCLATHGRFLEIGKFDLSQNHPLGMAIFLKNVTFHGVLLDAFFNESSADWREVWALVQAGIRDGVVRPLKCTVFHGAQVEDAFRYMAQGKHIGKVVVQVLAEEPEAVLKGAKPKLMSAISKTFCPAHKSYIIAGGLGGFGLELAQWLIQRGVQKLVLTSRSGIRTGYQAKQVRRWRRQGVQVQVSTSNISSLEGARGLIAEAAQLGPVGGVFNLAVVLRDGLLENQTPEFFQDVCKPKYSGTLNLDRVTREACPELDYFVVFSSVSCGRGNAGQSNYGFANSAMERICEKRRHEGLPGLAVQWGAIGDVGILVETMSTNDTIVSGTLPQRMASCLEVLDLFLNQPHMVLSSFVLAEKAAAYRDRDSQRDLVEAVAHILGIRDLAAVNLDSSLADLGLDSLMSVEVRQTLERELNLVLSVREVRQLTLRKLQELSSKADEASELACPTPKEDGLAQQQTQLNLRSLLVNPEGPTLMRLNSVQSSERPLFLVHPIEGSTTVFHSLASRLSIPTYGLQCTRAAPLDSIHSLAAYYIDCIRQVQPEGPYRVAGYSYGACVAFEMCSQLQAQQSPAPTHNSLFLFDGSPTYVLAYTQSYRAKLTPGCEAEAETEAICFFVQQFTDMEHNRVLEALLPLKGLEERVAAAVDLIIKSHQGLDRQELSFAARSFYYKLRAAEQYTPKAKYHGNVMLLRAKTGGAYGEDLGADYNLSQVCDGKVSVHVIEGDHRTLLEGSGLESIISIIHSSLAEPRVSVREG

Regarding `O=C(CC1C[C@H](C(=O)N2CCOCC2)[C@@]2(CCC3CCCC3)c3[nH]c4ccccc4c3CCN2C1=O)NCCN1CCOCC1` (stereo partly specified), the IC50 (commonly the concentration needed to halve the response being measured) at Fatty acid synthase [1] is 2.17 µM (active); on Fatty acid synthase [2], 2.6 µM (active).
With `CCCCCOP(=O)(OCCCCC)C1(NS(=O)(=O)c2ccccc2)C=CC(=O)c2ccccc21` (stereo unspecified), the AC50 (in general, the midpoint of the concentration-response curve, whichever way the signal moves) in assay [3] is 2.96 µM (active). The EC50 (usually the concentration at which the effect is half-maximal) on Protein RecA was 2.69 µM (active).
On to `O=C(c1cc2cc3ccc(Cl)cc3nc2o1)N1CCCCCC1`, for which the IC50 is 15.6 µM (active) on Fatty acid synthase [1] and 18.7 µM (active) at Fatty acid synthase [2].
Consider `CCNc1ccc(S(=O)(=O)N(C)C)cc1NCC(=O)Nc1ccccc1Cl`, for which the AC50 in [4] is 5.58 µM (active).
On to `Oc1ccc(Br)cc1-c1cc(-c2ccc(Cl)cc2)[nH]n1`, for which, in the assay on INS1, the AC50 is 4.87 µM (active).
In the case of `O=C(CCN1C(=O)/C(=C/c2cccs2)SC1=S)Nc1ccc(C(=O)O)c(O)c1`, the AC50 in assay [3] was 5.23 µM (active). Besides, the EC50 on Protein RecA was 13.3 µM (active).
In the case of `O=C(CN1CCN(S(=O)(=O)c2ccc(Cl)cc2)CC1)Nc1ccc2c(c1)OCO2`, the AC50 in [3] was 55.9 µM (active); on Cytochrome P450 1A2, 15.8 µM (inconclusive). Besides, the EC50 at Protein RecA was > 380 µM (inactive).
In the case of `CCN(CC)S(=O)(=O)c1ccc(N2CCc3ccccc3C2)nc1`, the results for the IC50 at Fatty acid synthase [1] and on Fatty acid synthase [2] were 9.71 µM (active) and 4.19 µM (active), respectively.
On to `CN(C)S(=O)(=O)c1ccc(C(=O)N2CCN=C2SCc2cccnc2)cc1`, for which the concentration at half-maximal activity (AC50) in assay [4] was 0.017 µM (active).
`Fc1ccc(-n2c(Cc3ccccc3)nnc2SCc2nc(-c3ccc(Cl)cc3)no2)cc1`: the IC50 was 8.88 µM (active) at Fatty acid synthase [1] and 14 µM (active) at Fatty acid synthase [2].
With `COc1ccc(C2CC(c3cccs3)=NN2C(=O)CSC2=NCCS2)cc1` (stereo unspecified), the EC50 was 21.5 µM (active) in assay [5], 5.31 µM (active) at Protein RecA, > 150 µM (not active) in the assay on Streptococcus and > 150 µM (not active) at Streptokinase A. The AC50 in assay [3] was 10.9 µM (active).
`Cc1n[nH]c2c1C(c1c[nH]nc1-c1ccc(F)cc1)C(C#N)=C(N)O2` (stereo unspecified): the AC50 in [3] is 12.1 µM (active). For the same compound, the EC50 on Protein RecA is 3.88 µM (active).
For the compound `O=C(/C=C/c1cccc([N+](=O)[O-])c1)NCCc1ccc(F)cc1`, the IC50 at Fatty acid synthase [1] is 11.8 µM (active); on Fatty acid synthase [2] it was 10.7 µM (active).
As to `Cc1c(C)c2ccc(OCC(=O)N3CCN(c4ccccc4)CC3)cc2oc1=O`, the IC50 on Fatty acid synthase [1] is 6.95 µM (active); on Fatty acid synthase [2], 5.34 µM (active).
As for `Cc1nc(C#N)c(N/N=C/c2cccc(Cl)c2)o1`, in [4], the AC50 was 1.66 µM (active).
Same read-out and setting: then `Cn1sc(NC(=O)c2ccc(Cl)cc2)nc1=O`, with 1.88 µM (active).
`Cc1ccccc1CNc1ccc(C(CC(N)=O)NC(=O)c2ccc(Br)cc2)cc1[N+](=O)[O-]` (stereo unspecified): the AC50 in assay [6] is 0.986 µM (active); with INS1, 14.9 µM (active).
As for `O=c1[nH]cc(O)c(=O)[nH]1`, the AC50 in [3] was 7.97 µM (active). Besides, the EC50 on Protein RecA was 9.27 µM (active).
In the case of `COc1ccc2[nH]c(N3CCCC3)nc2c1`, the AC50 in assay [4] is 6.11 µM (active).
As to `Cc1noc(C)c1NC(=O)Nc1cccc2c1O[C@H](CN(C)C(=O)Nc1ccccc1)[C@@H](C)CN([C@H](C)CO)C2=O`, the results for the IC50 on Fatty acid synthase [1] and at Fatty acid synthase [2] were 9.53 µM (active) and 13 µM (active), respectively.
In the case of `COc1ccc(NC2CCCN(C(=O)CCc3ccncc3)C2)cc1OC` (stereo unspecified), the AC50 in [4] was 4.75 µM (active).
Turning to `O=C(COC(=O)c1cccc([N+](=O)[O-])c1)NC1CCCC1`, the IC50 on Fatty acid synthase [1] was 8.78 µM (active); at Fatty acid synthase [2], 9.58 µM (active).
As for `Cc1ccn2c(=O)nc(SCC(=O)N3N=C(c4cccs4)CC3c3ccc(F)cc3)nc2c1` (stereo unspecified), the IC50 was 10.3 µM (active) on Fatty acid synthase [1] and 13.9 µM (active) at Fatty acid synthase [2]. In addition, the values for the EC50 in [7] and in assay [8] were 1.35 µM (active) and > 60 µM (not active), respectively.
In the case of `Cc1cc(C)n(-c2ccc([N+](=O)[O-])cc2)n1`, the AC50 in assay [3] was > 380 µM (inactive). Moreover, the EC50 on Protein RecA was > 380 µM (inactive).
Consider `CCOC(=O)Cc1c(O)oc2nnc(C)c-2c1C`, for which, in assay [3], the AC50 was > 380 µM (inactive). Also, the EC50 on Protein RecA is 19.1 µM (active).
`COc1ccc(Cn2c(S)nnc2-c2ccc(OC)cc2)cc1`: the AC50 in [4] was 0.009 µM (active).
As to `CN(C)S(=O)(=O)c1cccc(-c2cn3cccnc3n2)c1`, the AC50 in assay [4] was 0.278 µM (active).
